Laboratory results published in patent US9487561B2, “Biologically active complex and its preparation” (HAMLET PHARMA AB, priority 2010, dated 2016).

What was measured:
[1] = system: p38, HSP27, ERK1/2 in kidney and lung carcinoma cells; assay: MAPK phosphorylation (phospho-MAPK antibody arrays, Western blot); format: cell-based, human; conditions: for phosphorylation of p38: Western blot; for effect of ion channel inhibitor on suppression of p-ERK1/2 phosphorylation by HAMLET / effect of ion channel inhibitor on HAMLET-induced p38 phosphorylation: lung carcinoma cells; for effect of ion channel inhibitor on HAMLET-induced p38 phosphorylation: 30 minutes pretreatment, HAMLET 21 and 35 μM, 1 hour
Text: Equal volumes of lysates were separated by SDS-PAGE on 4-12% Bis-Tris gels (Invitrogen) and blotted onto PVDF membranes. For other Western blots, 200,000 cells were allowed to adhere overnight in a 6-well plate. After HAMLET treatment the cells were washed with PBS and lysed in M-PER lysis buffer (Pierce) containing Complete protease inhibitor cocktail and PhosSTOP phosphatase inhibitor cocktail (both from Roche). The detached cells were collected by centrifugation. The lysates were cleared by centrifugation and protein concentrations were measured using the DC Protein Assay (Bio-Rad Laboratories, Hercules, Calif.). Equal amounts of protein were separated by SDS-PAGE on 4-12% Bis-Tris gels (Invitrogen) and blotted onto PVDF membranes (GE Healthcare). Membranes were saturated with BSA (GAPDH) or nonfat dry milk (phospho-p38, p38, phospho-ERK1/2, ERK1/2) and incubated with anti-p38, anti-phospho-p38, anti-ERK1/2, anti-phospho-(Thr202/Tyr204)-p44/42 (all 1:500-1000, Cell Signaling Technology), anti-ATF6 (1:1000, IMG-273, Imgenex), anti-phospho-eIF2α (Ser51), (1:500, Cell Signaling Technology) or anti-GAPDH (1:3000-5000, Novus Biologicals) antibodies followed by horseradish peroxidase-conjugated anti-rabbit (1:1000, DakoCytomation, Glostrup, Denmark) or anti-mouse (1:40000-50000, Novus Biologicals) antibodies for staining. Bound antibodies were detected with ECL Plus Western Blotting Reagent (GE Healthcare, Little Chalfont, UK) and GelDoc equipment (Bio-Rad Laboratories, Hercules, Calif.). If required, membranes were stripped with Restore Western Blot Stripping Buffer (Pierce, Rockford, Ill.), blocked and reprobed with new antibodies. MAP kinase phosphorylation was analyzed on a Human Phospho-MAPK array (Proteome Profiler Array, R&D Systems) as per the manufacturer's instruction. Band and spot intensities were quantified using ImageJ (Abramoff et al., July 2004, Biophotonics International). Cytokine quantification (IL6, IL8, TNFα) was performed on an […] 1000 immunoassay system (Siemens Diagnostics).
P38 MAPKs are activated by dual phosphorylation on conserved threonine and tyrosine residues by MKK3/6 and when phosphorylated, a wide variety of effector proteins, including MAPKAPK2 kinases, HSP27 chaperones and ATF2 and CHOP transcription factors become active (Cuenda et al., 2007, Biochimica et Biophysica Acta 1773: 1358-1375).

tumor cells = assay: ion fluxes (Ca^2+, K^+, Na^+) quantified by fluorometry; format: cell-based; conditions: for effect of inhibitor on HAMLET Ca^2+ fluxes: FIG. 1B
Experimental: FIG. 1. […] (A, upper panels) Bright-field micrographs showing glass-adherent egg yolk vesicles before and after a 40-minute exposure to HAMLET, α-lactalbumin (HLA) or oleic acid (OA). Morphology was recorded by differential interference contrast microscopy. Scale bar […]. […] (A, lower panels) Effect of HAMLET on PMVs from lung carcinoma cells. PMVs on glass-bottom dishes were exposed to HAMLET, HLA or OA and stained with Nile red for confocal microscopy. […] As a control PMVs from healthy, differentiated cells on glass-bottom dishes were also exposed to HAMLET and stained with Nile red.
FIG. 7. Ion Fluxes. (A) Ion fluxes induced by HAMLET (35 μM) or it constituents (35 μM All-ala α-lactalbumin or 175 μM sodium oleate) were quantified by fluorometry, as described. […] (B) The global transcriptional response to HAMLET was studied by microarray and the top 3000 genes by variance visualized in a Heatmap. […] Darker bands=high expression, lighter bands=low.
The FLUXOR™ potassium (K^+) channel assay was performed on the TECAN infinite F200 (Tecan Group, Switzerland), according to the manufacturer's instructions (Invitrogen). Briefly, this involved FLUXOR™ loading buffer (Hank's Balanced Saline Solution, (HBSS) buffered with 20 mM HEPES and pH adjusted to 7.4 with NaOH. POWERLOAD™ concentrate and water-soluble Probenecid were used respectively to enhance the dye solubility and retention, respectively. Media were removed from the cell plates manually, and 80 μL of loading buffer containing the FLUXOR™ dye mix was applied to each well. Once inside the cell, the nonfluorescent AM ester form of the FLUXOR™ dye is cleaved by endogenous esterases into a thallium-sensitive indicator. The dye was loaded for 60 minutes at room temperature and then removed with the supernatant. After washing with dye-free PBS buffer, a final volume of 80 μL assay buffer containing water-soluble probenecid was added. Cells received one of the following channel inhibitors: 3.3 μL per well of 30 mM amiloride, 3.0 μL of 32 mM BaCl2, 1.8 μL of 5.4 mM gadolinium, 3 μL 3.2 mM tetrandrine and 2.3 μL of 2.6 mM ruthenium red, and were then incubated at room temperature (23-25° C.) for 30 minutes to allow equilibration of the test compounds. Prior to injection, stimulation buffer was prepared from the chloride-free buffer and thallium reagents provided in the kit as well as HAMLET, to achieve a final added concentrations of 2 mM free Tl+ and 35 μM HAMLET after 1:5 dilution upon injection of the stimulus buffer onto cells that had been loaded with FLUXOR™ dye.

[2] = system: lung carcinoma cells (A549); assay: intracellular Ca^2+, Fluo-4, real time confocal microscopy; format: cell-based, human; conditions: for effect of channel blocker on first, EGTA insensitive Ca^2+ peak in response to HAMLET: 30 minutes pretreatment
Experimental: To examine if HAMLET modulates ion channel activity in tumor cells, we first quantified changes in intracellular Ca^2+ and K^+. Lung carcinoma cells were first preloaded with the Fluo-4 Ca^2+ fluorophore Fluo-, exposed to HAMLET (35 μM) and examined by real time confocal microscopy for changes in fluorescence intensity (FIG. 1A). The Ca^2+ ionophore A23187, which acts as a Ca^2+ shuttle across cell membranes, was used as a positive control (Abbott et al., 1979, Antimicrobial Agents and Chemotherapy 16, 808-812).
To distinguish Ca^2+ mobilization from intracellular stores from the influx of extracellular Ca^2+, EGTA was then added to the cell medium. […] K^+ fluxes across tumor cell membranes were subsequently quantified under the same experimental conditions, using the fluorophore FLUXOR™, which fluoresces after thallium has entered cells through K^+ channels.
To further characterize ion channel activation by HAMLET, carcinoma cells were pretreated with defined channel blockers. Amiloride is a sodium channel inhibitor with effects on mechanosensitive channels, barium chloride (BaCl2) is a general K^+ channel inhibitor, gadolinium chloride (GdCl3) inhibits mechanosensitive channels, Ruthenium red is a general Ca^2+ inhibitor and tetrandrine inhibits large conductance, Ca^2+ activated K^+ channels. The carcinoma cells were preincubated with Fluo-4 as described above, pretreated with each of the channel inhibitors for 30 minutes, exposed to HAMLET (35 μM) and examined by real time confocal imaging. Furthermore, cells treated with EGTA were compared to cells with intact extracellular Ca^2+ levels, to distinguish the early peak from the subsequent influx of Ca^2+ (FIG. 1B, Table in FIG. 8).

[3] = 35 μM All-ala α-lactalbumin or 175 μM sodium oleate, FIG. 7A

CCCCCCCC/C=C\CCCCCCCC(=O)[O-].[Na+] [oleate, sodium oleate]
phosphorylation of p38 [1]: phosphorylation of p38 | K^+ fluxes (tumor cells; [3]): triggered K^+ fluxes | Na^+ or Ca^2+ fluxes (tumor cells; [3]): low

NC(N)=NC(=O)c1nc(Cl)c(N)nc1N [amiloride, 3,5-diamino-6-chloro-N-(diaminomethylene)pyrazine-2-carboxamide]
effect of ion channel inhibitor on suppression of p-ERK1/2 phosphorylation by HAMLET [1]: reversed | effect of ion channel inhibitor on HAMLET-induced p38 phosphorylation [1]: inhibited | effect of channel blocker on first, EGTA insensitive Ca^2+ peak in response to HAMLET ([2]; HAMLET 35 μM): inhibited | effect of inhibitor on HAMLET Ca^2+ fluxes (tumor cells): inhibited

[Ba+2].[Cl-].[Cl-] [BaCl2, barium chloride]
effect of ion channel inhibitor on suppression of p-ERK1/2 phosphorylation by HAMLET [1]: reversed | effect of ion channel inhibitor on HAMLET-induced p38 phosphorylation [1]: inhibited | effect of channel blocker on first, EGTA insensitive Ca^2+ peak in response to HAMLET ([2]; HAMLET 35 μM): inhibited | effect of inhibitor on HAMLET Ca^2+ fluxes (tumor cells): inhibited

B1: HAMLET (protein, UniProt P00709 20-142, looked up)
Alpha-lactalbumin: KQFTKCELSQLLKDIDGYGGIALPELICTMFHTSGYDTQAIVENNESTEYGLFQISNKLWCKSSQVPQSRNICDISCDKFLDDDITDDIMCAKKILDIKGIDYWLAHKALCTEKLEQWLCEKL
modifications: oleic acid complex
ERK1/2 phosphorylation ([1]; 30 minutes): loss of ERK1/2 phosphorylation | p38α and HSP27 phosphorylation ([1]; 30 minutes, phospho-MAPK antibody arrays): phosphorylating p38α and HSP27 | phosphorylation of p38 [1]: dose- and time-dependent | cells involved in Ca^2+ response [2]: about 50% | increase in intracellular Ca^2+ levels relative to ionophore ([2]; HAMLET 35 μM): 31 % of the ionophore | intracellular Ca^2+ response ([2]; HAMLET 35 μM): rapid, step-wise increase in intracellular Ca^2+ | second Ca^2+ peak ([2]; HAMLET 35 μM): about 100 seconds | start of increase in intracellular Ca^2+ ([2]; HAMLET 35 μM): about 30 seconds
